Active and inactive are the calls of the source.
How the values were obtained:
Ammannia multiflora [1] = test: Pre-emergence herbicidal activity against Ammannia multiflora assessed as bleaching of stem/leaf parts; format: functional, organism-based
Echinochloa oryzicola [2] = test: Pre-emergence herbicidal activity against Echinochloa oryzicola at 500 g a.i/ha measured after 14 days; format: functional, organism-based
Rotala indica [3] = test: Pre-emergence herbicidal activity against Rotala indica assessed as bleaching of stem/leaf parts; format: functional, organism-based
Lindernia procumbens [4] = test: Pre-emergence herbicidal activity against Lindernia procumbens at 100 g a.i/ha measured after 14 days; format: functional, organism-based
Eleocharis acicularis [5] = test: Post-emergence herbicidal activity against Eleocharis acicularis assessed as bleaching of stem/leaf parts; format: functional, organism-based; further: test concentration or dose not given here
Ammannia multiflora [6] = test: Post-emergence herbicidal activity against Ammannia multiflora assessed as bleaching of stem/leaf parts; format: functional, organism-based; further: test concentration or dose not given here
Cyperus difformis [7] = test: Pre-emergence herbicidal activity against Cyperus difformis assessed as bleaching of stem/leaf parts; format: functional, organism-based
Echinochloa oryzicola [8] = test: Pre-emergence herbicidal activity against Echinochloa oryzicola assessed as bleaching of stem/leaf parts; format: functional, organism-based
Cyperus difformis [9] = test: Pre-emergence herbicidal activity against Cyperus difformis at 100 g a.i/ha measured after 14 days; format: functional, organism-based
Rotala indica [10] = test: Pre-emergence herbicidal activity against Rotala indica at 100 g a.i/ha measured after 14 days; format: functional, organism-based
Elatine triandra [11] = test: Pre-emergence herbicidal activity against Elatine triandra assessed as bleaching of stem/leaf parts; format: functional, organism-based
Lindernia procumbens [12] = test: Pre-emergence herbicidal activity against Lindernia procumbens at 500 g a.i/ha measured after 14 days; format: functional, organism-based
[13] = system: Schoenoplectiella juncoides; test: Pre-emergence herbicidal activity against Schoenoplectiella juncoides at 500 g a.i/ha measured after 14 days; format: functional, organism-based
Cyperus difformis [14] = test: Post-emergence herbicidal activity against Cyperus difformis assessed as bleaching of stem/leaf parts; format: functional, organism-based; further: test concentration or dose not given here
Elatine triandra [15] = test: Pre-emergence herbicidal activity against Elatine triandra at 500 g a.i/ha measured after 14 days; format: functional, organism-based
Eleocharis acicularis [16] = test: Pre-emergence herbicidal activity against Eleocharis acicularis at 500 g a.i/ha measured after 14 days; format: functional, organism-based
[17] = system: Schoenoplectiella juncoides; test: Pre-emergence herbicidal activity against Schoenoplectiella juncoides assessed as bleaching of stem/leaf parts; format: functional, organism-based
Pontederia vaginalis [18] = test: Post-emergence herbicidal activity against Monochoria vaginalis assessed as bleaching of stem/leaf parts; format: functional, organism-based; further: test concentration or dose not given here
Oryza sativa [19] = test: Phytotoxicity against Oryza sativa cv. Koshihikari (rice) at 500 g a.i/ha measured after 14 days; format: organism-based; details: in vivo, 336 h
Cyperus difformis [20] = test: Pre-emergence herbicidal activity against Cyperus difformis at 500 g a.i/ha measured after 14 days; format: functional, organism-based
Elatine triandra [21] = test: Pre-emergence herbicidal activity against Elatine triandra at 100 g a.i/ha measured after 14 days; format: functional, organism-based
Echinochloa oryzicola [22] = test: Pre-emergence herbicidal activity against Echinochloa oryzicola at 100 g a.i/ha measured after 14 days; format: functional, organism-based
Echinochloa oryzicola [23] = test: Post-emergence herbicidal activity against Echinochloa oryzicola assessed as bleaching of stem/leaf parts; format: functional, organism-based; further: test concentration or dose not given here
Oryza sativa [24] = test: Phytotoxicity against Oryza sativa cv. Koshihikari (rice) at 100 g a.i/ha measured after 14 days; format: organism-based; details: in vivo, 336 h
Lindernia procumbens [25] = test: Pre-emergence herbicidal activity against Lindernia procumbens assessed as bleaching of stem/leaf parts; format: functional, organism-based
Pontederia vaginalis [26] = test: Pre-emergence herbicidal activity against Monochoria vaginalis assessed as bleaching of stem/leaf parts; format: functional, organism-based
Rotala indica [27] = test: Post-emergence herbicidal activity against Rotala indica assessed as bleaching of stem/leaf parts; format: functional, organism-based; further: test concentration or dose not given here
Ammannia multiflora [28] = test: Pre-emergence herbicidal activity against Ammannia multiflora at 100 g a.i/ha measured after 14 days; format: functional, organism-based
Rotala indica [29] = test: Pre-emergence herbicidal activity against Rotala indica at 500 g a.i/ha measured after 14 days; format: functional, organism-based
[30] = system: Schoenoplectiella juncoides; test: Pre-emergence herbicidal activity against Schoenoplectiella juncoides at 100 g a.i/ha measured after 14 days; format: functional, organism-based
[31] = system: Schoenoplectiella juncoides; test: Post-emergence herbicidal activity against Schoenoplectiella juncoides assessed as bleaching of stem/leaf parts; format: functional, organism-based; further: test concentration or dose not given here
Eleocharis acicularis [32] = test: Pre-emergence herbicidal activity against Eleocharis acicularis at 100 g a.i/ha measured after 14 days; format: functional, organism-based
Eleocharis acicularis [33] = test: Pre-emergence herbicidal activity against Eleocharis acicularis assessed as bleaching of stem/leaf parts; format: functional, organism-based
Pontederia vaginalis [34] = test: Pre-emergence herbicidal activity against Monochoria vaginalis at 100 g a.i/ha measured after 14 days; format: functional, organism-based
Pontederia vaginalis [35] = test: Pre-emergence herbicidal activity against Monochoria vaginalis at 500 g a.i/ha measured after 14 days; format: functional, organism-based
Elatine triandra [36] = test: Post-emergence herbicidal activity against Elatine triandra assessed as bleaching of stem/leaf parts; format: functional, organism-based; further: test concentration or dose not given here
Lindernia procumbens [37] = test: Post-emergence herbicidal activity against Lindernia procumbens assessed as bleaching of stem/leaf parts; format: functional, organism-based; further: test concentration or dose not given here
Ammannia multiflora [38] = test: Pre-emergence herbicidal activity against Ammannia multiflora at 500 g a.i/ha measured after 14 days; format: functional, organism-based

Structure (SMILES): Cn1cc(C(=O)Nc2ccc(Cl)cc2Cl)c(OCc2cccc(C(F)(F)F)c2)n1
- Activity (Ammannia multiflora [1]): Active
- Activity (Echinochloa oryzicola [2]): Active
- Activity (Rotala indica [3]): Active
- Activity (Lindernia procumbens [4]): Active
- Activity (Eleocharis acicularis [5]): Active
- Activity (Ammannia multiflora [6]): Active
- Activity (Cyperus difformis [7]): Active
- Activity (Echinochloa oryzicola [8]): Active
- Activity (Cyperus difformis [9]): Active
- Activity (Rotala indica [10]): Active
- Activity (Elatine triandra [11]): Active
- Activity (Lindernia procumbens [12]): Active
- Activity [13]: Active
- Activity (Cyperus difformis [14]): Active
- Activity (Elatine triandra [15]): Active
- Activity (Eleocharis acicularis [16]): Active
- Activity [17]: Active
- Activity (Pontederia vaginalis [18]): Active
- Activity (Oryza sativa [19]): Toxic
- Activity (Cyperus difformis [20]): Active
- Activity (Elatine triandra [21]): Active
- Activity (Echinochloa oryzicola [22]): inactive
- Activity (Echinochloa oryzicola [23]): Active
- Activity (Oryza sativa [24]): Non-toxic
- Activity (Lindernia procumbens [25]): Active
- Activity (Pontederia vaginalis [26]): Active
- Activity (Rotala indica [27]): Active
- Activity (Ammannia multiflora [28]): Active
- Activity (Rotala indica [29]): Active
- Activity [30]: inactive
- Activity [31]: Active
- Activity (Eleocharis acicularis [32]): Active
- Activity (Eleocharis acicularis [33]): Active
- Activity (Pontederia vaginalis [34]): Active
- Activity (Pontederia vaginalis [35]): Active
- Activity (Elatine triandra [36]): Active
- Activity (Lindernia procumbens [37]): Active
- Activity (Ammannia multiflora [38]): Active

Structure (SMILES): CCONC(=O)c1cn(C(F)F)nc1OCc1cccc(C(F)(F)F)c1
- Activity (Ammannia multiflora [1]): Active
- Activity (Echinochloa oryzicola [2]): Active
- Activity (Rotala indica [3]): Active
- Activity (Lindernia procumbens [4]): Active
- Activity (Eleocharis acicularis [5]): Active
- Activity (Ammannia multiflora [6]): Active
- Activity (Cyperus difformis [7]): Active
- Activity (Echinochloa oryzicola [8]): Active
- Activity (Cyperus difformis [9]): Active
- Activity (Rotala indica [10]): Active
- Activity (Elatine triandra [11]): Active
- Activity (Lindernia procumbens [12]): Active
- Activity [13]: Active
- Activity (Cyperus difformis [14]): Active
- Activity (Elatine triandra [15]): Active
- Activity [17]: Active
- Activity (Pontederia vaginalis [18]): Active
- Activity (Oryza sativa [19]): Non-toxic
- Activity (Cyperus difformis [20]): Active
- Activity (Elatine triandra [21]): Active
- Activity (Echinochloa oryzicola [22]): inactive
- Activity (Echinochloa oryzicola [23]): Active
- Activity (Oryza sativa [24]): Non-toxic
- Activity (Lindernia procumbens [25]): Active
- Activity (Pontederia vaginalis [26]): Active
- Activity (Rotala indica [27]): Active
- Activity (Ammannia multiflora [28]): Active
- Activity (Rotala indica [29]): Active
- Activity [30]: Active
- Activity [31]: Active
- Activity (Eleocharis acicularis [33]): Active
- Activity (Pontederia vaginalis [34]): Active
- Activity (Pontederia vaginalis [35]): Active
- Activity (Elatine triandra [36]): Active
- Activity (Lindernia procumbens [37]): Active
- Activity (Ammannia multiflora [38]): Active

Source: ChEMBL document CHEMBL3046635, “Synthesis and Herbicidal Activity of New Pyrazole-4-carboxamide Derivatives” (J Pestic Sci, 2004)
